For 65 compounds, logP results are on record in ChEMBL document CHEMBL1944551, “An integrated computational workflow for efficient and quantitative modeling of renin inhibitors” (Bioorg Med Chem, 2012).

A short description of the data set: physchem. Particulars: octanol/buffer.
`CCC(=O)NCc1ccc(Cl)c(CN(C(=O)[C@H]2CNCC(=O)N2c2ccc(OCCCOCc3ccccc3)cc2)C2CC2)c1`: the lipophilicity (logP) (as a rule, a log measure of how a compound divides between an organic and an aqueous phase) came to 5.04.
Then `CCC(=O)NCc1ccc(Cl)c(CN(C(=O)[C@H]2CNCC(=O)N2c2ccc(OCCCOCc3ccccc3OC)cc2)C2CC2)c1`, with 5.
Then `CC(=O)NCCc1ccc(Cl)c(CN(C(=O)[C@H]2CNCC(=O)N2c2ccc(COC(=O)c3ccccc3)cc2)C2CC2)c1`, with 4.28.
Then `CC(=O)NCCc1ccc(Cl)c(CN(C(=O)[C@H]2CNCC(=O)N2c2ccc(OCCCOCc3ccccc3)cc2)C2CC2)c1`, with 4.66; and `COc1ccccc1COCCCOc1ccc(N2C(=O)CNC[C@@H]2C(=O)N(Cc2cc(CCNC(C)=O)ccc2Cl)C2CC2)cc1`, with 4.61.
For `COc1ccccc1COCCCOc1ncc(N2C(=O)CNC[C@@H]2C(=O)N(Cc2cc(CCNC(C)=O)ccc2Cl)C2CC2)cn1`, the logP was 2.6.
`CC(=O)NCCc1ccc(Cl)c(CN(C(=O)[C@H]2CNCC(=O)N2c2ccc(CCCOc3cccc(Cl)c3)cc2)C2CC2)c1` had a logP of 5.45.
Then `CC(=O)NCCc1ccc(Cl)c(CN(C(=O)[C@H]2CNCC(=O)N2c2ccc(CCCOc3c(F)ccc(F)c3F)cc2)C2CC2)c1`, with 5.28; and `CNC(=O)CCc1ccc(Cl)c(CN(C(=O)[C@H]2CNCC(=O)N2c2ccc(OCCOc3c(Cl)cc(C)cc3Cl)cc2)C2CC2)c1`, with 5.34; and `CNC(=O)CCc1ccc(Cl)c(CN(C(=O)[C@H]2CNCC(=O)N2c2ccc(OCCOc3c(Cl)cc(C)cc3Cl)nc2)C2CC2)c1`, with 4.52.
For `CNC(=O)CCc1ccc(Cl)c(CN(C(=O)[C@H]2CNCC(=O)N2c2ccc(COC(=O)c3ccccc3)cc2)C2CC2)c1`, the logP amounted to 4.24.
Then `CNC(=O)CCc1ccc(Cl)c(CN(C(=O)[C@H]2CNCC(=O)N2c2ccc(OCCCOCc3ccccc3)cc2)C2CC2)c1`, with 4.62; and `CNC(=O)CCc1ccc(Cl)c(CN(C(=O)[C@H]2CNCC(=O)N2c2ccc(OCCCOCc3ccccc3OC)cc2)C2CC2)c1`, with 4.57; and `CNC(=O)CCc1ccc(Cl)c(CN(C(=O)[C@H]2CNCC(=O)N2c2cnc(OCCCOCc3ccccc3OC)nc2)C2CC2)c1`, with 2.56.
As to `CNC(=O)CCc1ccc(Cl)c(CN(C(=O)[C@H]2CNCC(=O)N2c2ccc(CCCOc3cccc(Cl)c3)cc2)C2CC2)c1`, the lipophilicity (logP) is 5.42.
Then `CNC(=O)CCc1ccc(Cl)c(CN(C(=O)[C@H]2CNCC(=O)N2c2ccc(CCCOc3c(F)ccc(F)c3F)cc2)C2CC2)c1`, with 5.24; and `CCC(=O)NCc1ccc(Cl)c(CN(C(=O)[C@H]2CNCC(=O)N2c2cnc(OCCCOCc3ccccc3OC)nc2)C2CC2)c1`, with 2.98; and `CCC(=O)NCc1ccc(Cl)c(CN(C(=O)[C@H]2CNCC(=O)N2c2ccc(CCCOc3cccc(Cl)c3)cc2)C2CC2)c1`, with 5.84.
Then `CCC(=O)NCc1ccc(Cl)c(CN(C(=O)[C@H]2CNCC(=O)N2c2ccc(CCCOc3c(F)ccc(F)c3F)cc2)C2CC2)c1`, with 5.67; and `Cc1cc(Cl)c(OCCOc2ccc(N3C(=O)CNC[C@@H]3C(=O)N(Cc3cc(CC(=O)NC4CC4)ccc3Cl)C3CC3)cc2)c(Cl)c1`, with 5.91; and `Cc1cc(Cl)c(OCCOc2ccc(N3C(=O)CNC[C@@H]3C(=O)N(Cc3cc(CC(=O)NC4CC4)ccc3Cl)C3CC3)cn2)c(Cl)c1`, with 5.08.
Compound `O=C(Cc1ccc(Cl)c(CN(C(=O)[C@H]2CNCC(=O)N2c2ccc(COC(=O)c3ccccc3)cc2)C2CC2)c1)NC1CC1` yielded a logP of 4.81.
Then `O=C(Cc1ccc(Cl)c(CN(C(=O)[C@H]2CNCC(=O)N2c2ccc(OCCCOCc3ccccc3)cc2)C2CC2)c1)NC1CC1`, with 5.18.
With `COc1ccccc1COCCCOc1ccc(N2C(=O)CNC[C@@H]2C(=O)N(Cc2cc(CC(=O)NC3CC3)ccc2Cl)C2CC2)cc1`, the logP turned out to be 5.14. This logP and that of the compound before are within 0.2 log units of each other.
For the compound `COc1ccccc1COCCCOc1ncc(N2C(=O)CNC[C@@H]2C(=O)N(Cc2cc(CC(=O)NC3CC3)ccc2Cl)C2CC2)cn1`, the logP turned out to be 3.13.
Then `Cc1cc(Cl)c(OCCOc2ccc(N3C(=O)CNC[C@@H]3C(=O)N(Cc3cc(CNCC(F)F)ccc3Cl)C3CC3)cc2)c(Cl)c1`, with 6.07; and `Cc1cc(Cl)c(OCCOc2ccc(N3C(=O)CNC[C@@H]3C(=O)N(Cc3cc(CNCC(F)F)ccc3Cl)C3CC3)cn2)c(Cl)c1`, with 5.24; and `O=C(OCc1ccc(N2C(=O)CNC[C@@H]2C(=O)N(Cc2cc(CNCC(F)F)ccc2Cl)C2CC2)cc1)c1ccccc1`, with 4.96.
Then `O=C([C@H]1CNCC(=O)N1c1ccc(OCCCOCc2ccccc2)cc1)N(Cc1cc(CNCC(F)F)ccc1Cl)C1CC1`, with 5.34; and `COc1ccccc1COCCCOc1ccc(N2C(=O)CNC[C@@H]2C(=O)N(Cc2cc(CNCC(F)F)ccc2Cl)C2CC2)cc1`, with 5.29; and `CCNC(=O)Cc1ccc(Cl)c(CN(C(=O)[C@H]2CNCC(=O)N2c2ccc(OCCOc3c(Cl)cc(C)cc3Cl)cc2)C2CC2)c1`, with 5.6.
Then `CCNC(=O)Cc1ccc(Cl)c(CN(C(=O)[C@H]2CNCC(=O)N2c2ccc(OCCOc3c(Cl)cc(C)cc3Cl)nc2)C2CC2)c1`, with 4.77; and `CCNC(=O)Cc1ccc(Cl)c(CN(C(=O)[C@H]2CNCC(=O)N2c2ccc(COC(=O)c3ccccc3)cc2)C2CC2)c1`, with 4.49; and `CCNC(=O)Cc1ccc(Cl)c(CN(C(=O)[C@H]2CNCC(=O)N2c2ccc(OCCCOCc3ccccc3)cc2)C2CC2)c1`, with 4.87.
The compound `CCNC(=O)Cc1ccc(Cl)c(CN(C(=O)[C@H]2CNCC(=O)N2c2ccc(OCCCOCc3ccccc3OC)cc2)C2CC2)c1` came in with a log partition coefficient (logP) of 4.82.
The compound `CCNC(=O)Cc1ccc(Cl)c(CN(C(=O)[C@H]2CNCC(=O)N2c2cnc(OCCCOCc3ccccc3OC)nc2)C2CC2)c1` returned a logP of 2.81.
For the compound `O=C(Cc1ccc(Cl)c(CN(C(=O)[C@H]2CNCC(=O)N2c2ccc(CCCOc3cccc(Cl)c3)cc2)C2CC2)c1)NC1CC1`, the lipophilicity (logP) amounted to 5.98.
For the compound `O=C(Cc1ccc(Cl)c(CN(C(=O)[C@H]2CNCC(=O)N2c2ccc(CCCOc3c(F)ccc(F)c3F)cc2)C2CC2)c1)NC1CC1`, the lipophilicity (logP) came to 5.8.
In turn, `Cc1cc(Cl)c(OCCOc2ccc(N3C(=O)CNC[C@@H]3C(=O)N(Cc3cc(CNC(=O)C4CC4)ccc3Cl)C3CC3)cc2)c(Cl)c1` gave a logP of 5.65.
Then `Cc1cc(Cl)c(OCCOc2ccc(N3C(=O)CNC[C@@H]3C(=O)N(Cc3cc(CNC(=O)C4CC4)ccc3Cl)C3CC3)cn2)c(Cl)c1`, with 4.82; and `O=C(OCc1ccc(N2C(=O)CNC[C@@H]2C(=O)N(Cc2cc(CNC(=O)C3CC3)ccc2Cl)C2CC2)cc1)c1ccccc1`, with 4.54.
Consider `O=C(NCc1ccc(Cl)c(CN(C(=O)[C@H]2CNCC(=O)N2c2ccc(OCCCOCc3ccccc3)cc2)C2CC2)c1)C1CC1`, for which the lipophilicity (logP) was 4.92.
`COc1ccccc1COCCCOc1ccc(N2C(=O)CNC[C@@H]2C(=O)N(Cc2cc(CNC(=O)C3CC3)ccc2Cl)C2CC2)cc1` gave a lipophilicity (logP) of 4.87. This logP and that of the compound before are within 0.2 log units of each other.
Then `COc1ccccc1COCCCOc1ncc(N2C(=O)CNC[C@@H]2C(=O)N(Cc2cc(CNC(=O)C3CC3)ccc2Cl)C2CC2)cn1`, with 2.86; and `O=C(NCc1ccc(Cl)c(CN(C(=O)[C@H]2CNCC(=O)N2c2ccc(CCCOc3cccc(Cl)c3)cc2)C2CC2)c1)C1CC1`, with 5.72.
Then `O=C(NCc1ccc(Cl)c(CN(C(=O)[C@H]2CNCC(=O)N2c2ccc(CCCOc3c(F)ccc(F)c3F)cc2)C2CC2)c1)C1CC1`, with 5.54; and `COc1ccccc1COCCCOc1ncc(N2C(=O)CNC[C@@H]2C(=O)N(Cc2cc(CNCC(F)F)ccc2Cl)C2CC2)cn1`, with 3.28.
Then `O=C([C@H]1CNCC(=O)N1c1ccc(CCCOc2cccc(Cl)c2)cc1)N(Cc1cc(CNCC(F)F)ccc1Cl)C1CC1`, with 6.14; and `O=C([C@H]1CNCC(=O)N1c1ccc(CCCOc2c(F)ccc(F)c2F)cc1)N(Cc1cc(CNCC(F)F)ccc1Cl)C1CC1`, with 5.96.
`CC(=O)NCCc1ccc(Cl)c(CN(C(=O)[C@H]2CNCC(=O)N2c2ccc(OCCOc3c(Cl)cc(C)cc3Cl)cc2)C2CC2)c1`: the logP was 5.38.
Then `CC(=O)NCCc1ccc(Cl)c(CN(C(=O)[C@H]2CNCC(=O)N2c2ccc(OCCOc3c(Cl)cc(C)cc3Cl)nc2)C2CC2)c1`, with 4.55; and `CCNC(=O)Cc1ccc(Cl)c(CN(C(=O)[C@H]2CNCC(=O)N2c2ccc(CCCOc3c(F)ccc(F)c3F)cc2)C2CC2)c1`, with 5.49.
Then `CNC(=O)OCc1ccc(Cl)c(CN(C(=O)[C@H]2CNCC(=O)N2c2ccc(OCCOc3c(Cl)cc(C)cc3Cl)cc2)C2CC2)c1`, with 5.58.
Then `CNC(=O)OCc1ccc(Cl)c(CN(C(=O)[C@H]2CNCC(=O)N2c2ccc(OCCOc3c(Cl)cc(C)cc3Cl)nc2)C2CC2)c1`, with 4.75.
Compound `CC(=O)NCc1ccc(Cl)c(CN(C(=O)[C@H]2CNCC(=O)N2c2ccc(OCCOc3c(Cl)cc(C)cc3Cl)cc2)C2CC2)c1` came in with a logP of 5.29.
As for `CC(=O)NCc1ccc(Cl)c(CN(C(=O)[C@H]2CNCC(=O)N2c2ccc(OCCOc3c(Cl)cc(C)cc3Cl)nc2)C2CC2)c1`, the logP is 4.47.
Then `CC(=O)NCc1ccc(Cl)c(CN(C(=O)[C@H]2CNCC(=O)N2c2ccc(COC(=O)c3ccccc3)cc2)C2CC2)c1`, with 4.19; and `CC(=O)NCc1ccc(Cl)c(CN(C(=O)[C@H]2CNCC(=O)N2c2ccc(OCCCOCc3ccccc3)cc2)C2CC2)c1`, with 4.57.
Then `COc1ccccc1COCCCOc1ccc(N2C(=O)CNC[C@@H]2C(=O)N(Cc2cc(CNC(C)=O)ccc2Cl)C2CC2)cc1`, with 4.52; and `COc1ccccc1COCCCOc1ncc(N2C(=O)CNC[C@@H]2C(=O)N(Cc2cc(CNC(C)=O)ccc2Cl)C2CC2)cn1`, with 2.51.
The compound `CC(=O)NCc1ccc(Cl)c(CN(C(=O)[C@H]2CNCC(=O)N2c2ccc(CCCOc3cccc(Cl)c3)cc2)C2CC2)c1` yielded a logP of 5.37.
Regarding `CC(=O)NCc1ccc(Cl)c(CN(C(=O)[C@H]2CNCC(=O)N2c2ccc(CCCOc3c(F)ccc(F)c3F)cc2)C2CC2)c1`, the lipophilicity (logP) came out at 5.19. The logP values of the last two compounds are within 0.2 log units of each other.
Then `CCC(=O)NCc1ccc(Cl)c(CN(C(=O)[C@H]2CNCC(=O)N2c2ccc(OCCOc3c(Cl)cc(C)cc3Cl)cc2)C2CC2)c1`, with 5.77; and `CCC(=O)NCc1ccc(Cl)c(CN(C(=O)[C@H]2CNCC(=O)N2c2ccc(OCCOc3c(Cl)cc(C)cc3Cl)nc2)C2CC2)c1`, with 4.94; and `CCC(=O)NCc1ccc(Cl)c(CN(C(=O)[C@H]2CNCC(=O)N2c2ccc(COC(=O)c3ccccc3)cc2)C2CC2)c1`, with 4.67.
